In US11198713B2, “Agents modulating beta-catenin functions and methods thereof” (FOG PHARMACEUTICALS, INC., priority 2017, dated 2021) one finds EC50 and Kd data, which are given here for four compounds.

Experiment [1] has as its target T1, full-length beta-catenin (Axin site) (Homo sapiens, UniProt P35222).
T1 construct: 15 nM full-length beta-catenin, 20 nM FITC labeled peptide in buffer
T1 sequence (P35222 1-781): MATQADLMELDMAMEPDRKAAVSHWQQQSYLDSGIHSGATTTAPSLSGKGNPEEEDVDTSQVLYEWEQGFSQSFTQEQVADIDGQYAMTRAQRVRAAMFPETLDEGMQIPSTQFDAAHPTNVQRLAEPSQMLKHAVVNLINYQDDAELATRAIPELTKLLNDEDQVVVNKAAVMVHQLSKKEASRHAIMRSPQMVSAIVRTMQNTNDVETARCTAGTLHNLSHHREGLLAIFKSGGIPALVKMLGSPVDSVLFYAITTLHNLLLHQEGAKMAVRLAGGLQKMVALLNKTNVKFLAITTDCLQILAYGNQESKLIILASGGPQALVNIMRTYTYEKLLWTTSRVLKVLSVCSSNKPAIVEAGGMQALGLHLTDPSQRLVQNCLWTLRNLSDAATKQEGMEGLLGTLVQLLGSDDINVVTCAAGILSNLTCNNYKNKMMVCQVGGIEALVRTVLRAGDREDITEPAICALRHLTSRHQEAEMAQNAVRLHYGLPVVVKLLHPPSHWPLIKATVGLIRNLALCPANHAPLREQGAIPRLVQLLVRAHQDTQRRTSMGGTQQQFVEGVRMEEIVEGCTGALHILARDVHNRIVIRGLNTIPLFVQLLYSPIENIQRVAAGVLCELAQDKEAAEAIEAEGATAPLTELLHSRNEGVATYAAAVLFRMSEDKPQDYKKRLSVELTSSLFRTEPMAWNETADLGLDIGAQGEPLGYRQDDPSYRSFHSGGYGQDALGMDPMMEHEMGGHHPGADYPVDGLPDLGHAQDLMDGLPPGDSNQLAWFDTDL
Put plainly: Competition fluorescence polarization assay (Axin site probe). Format: binding. Summed up:
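Competition FP: 15 nM full-length β-catenin pre-incubated 5 min with 20 nM FITC-labelled stapled Axin-site peptide, then titrated peptide added (3-fold series from 5 μM) for 15 min in the dark. Buffer 50 mM Tris pH 8.0, 250 mM NaCl, 2% glycerol, 0.5 mM EDTA; duplicate reads.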
A general note: Fluorescence polarisation rises when a labelled molecule tumbles more slowly, as on binding a larger partner.

Experiment [2] has as its target T2, biotinylated beta-catenin (Homo sapiens, UniProt P35222).
T2 sequence (P35222 1-781): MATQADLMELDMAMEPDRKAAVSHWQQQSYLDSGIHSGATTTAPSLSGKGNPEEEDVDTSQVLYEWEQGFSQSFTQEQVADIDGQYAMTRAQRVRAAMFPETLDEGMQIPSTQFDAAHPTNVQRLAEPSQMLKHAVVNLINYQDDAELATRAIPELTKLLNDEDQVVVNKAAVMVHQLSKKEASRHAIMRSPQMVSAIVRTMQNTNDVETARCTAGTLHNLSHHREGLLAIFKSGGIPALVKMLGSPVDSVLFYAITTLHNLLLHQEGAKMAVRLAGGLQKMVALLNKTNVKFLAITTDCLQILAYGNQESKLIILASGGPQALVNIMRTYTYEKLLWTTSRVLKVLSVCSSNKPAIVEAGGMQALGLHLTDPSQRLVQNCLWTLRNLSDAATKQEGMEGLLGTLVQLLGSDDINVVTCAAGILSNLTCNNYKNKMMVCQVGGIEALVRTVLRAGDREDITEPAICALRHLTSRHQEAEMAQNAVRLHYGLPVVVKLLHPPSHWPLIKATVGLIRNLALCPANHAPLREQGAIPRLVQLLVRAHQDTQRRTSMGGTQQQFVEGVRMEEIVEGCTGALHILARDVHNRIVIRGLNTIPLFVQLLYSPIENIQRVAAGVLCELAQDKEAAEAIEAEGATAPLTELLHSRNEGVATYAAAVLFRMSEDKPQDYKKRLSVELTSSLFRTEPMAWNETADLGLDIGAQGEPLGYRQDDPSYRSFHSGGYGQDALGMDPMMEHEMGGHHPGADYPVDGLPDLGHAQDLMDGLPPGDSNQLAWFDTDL
Put plainly: Surface Plasmon Resonance (Biacore). Format: binding. Here is the method: Additionally or alternatively, binding to beta-catenin may be measured by Surface Plasmon Resonance. In an exemplary assay, approximately 6 nmol dried peptide diluted in buffer (50 mM Tris pH 8.0, 300 mM NaCl, 2% glycerol, 0.5 mM TCEP, 0.5 mM EDTA, 0.005% Tween-20, 1 mg/mL CM Dextran, 0.02% w/v sodium azide) was assayed on a Biacore X100 using the Biacore Biotin CAPture Kit (GE Healthcare) and biotinylated beta-catenin. Results were analyzed using the Biacore X100 Evaluation Software. […] FPO217c (Isomer 2) bound to the armadillo domain of β-catenin with a Kd of 2 nM.
Background: Surface plasmon resonance follows binding to a sensor surface in real time, without labels.

Where [3] appears, read: competition fluorescence polarization, Table 2, read-out: in vitro FP EC50.
The mark [4] stands for this setting: competition with FITC labeled Axin-site probe, 15 nM full-length beta-catenin, read-out: FP EC50.
Where [5] appears, read: Biacore, biotinylated beta-catenin, read-out: Kd.

SMILES strings stand for the structures. Where two headings read alike, the source gives them in different places. Bounds are passed on as bounds.

One may read the EC50 as the concentration needed to bring the measured effect to its halfway point. Usually Kd stands for the free concentration of one partner at which half of the binding sites on the other are occupied at equilibrium, for simple one-to-one binding. As for `CC[C@H](C)[C@@H]1NC(=O)[C@](C)(NC(=O)[C@H](CCC(N)=O)NC(=O)[C@@H]2CCCN2C(C)=O)CCC=CCOC(=O)N2CC[C@](C(=O)N[C@@H](Cc3c[nH]cn3)C(=O)N[C@H](C(=O)N[C@@H](CCCNC(=N)N)C(=O)N[C@@H](CCCNC(=N)N)C(=O)N[C@H](C(=O)N[C@@H](Cc3c[nH]c4ccccc34)C(=O)N[C@@H](CCCNC(=N)N)C(N)=O)C(C)C)C(C)C)(C2)NC(=O)[C@H](CC(=O)O)NC(=O)[C@H](CC(C)C)NC1=O` (single isomer, unassigned) [FP0765c, Ac-P-Q-R4-I-L-D-MC-H-V-R-R-V-W-R-NH2], the concentration for a half-maximal effect (EC50) in experiment [1] (setting [3]) was below 100 nM. For the same compound, in experiment [2] (Table 2, read-out: Kd by SPR), the Kd was determined as 13 nM.

`CC[C@H](C)[C@@H]1NC(=O)[C@](C)(NC(=O)[C@H](CCC(N)=O)NC(=O)[C@@H]2CCCN2C(C)=O)CCCC=CCOC(=O)N2CC[C@](C(=O)N[C@@H](Cc3c[nH]cn3)C(=O)N[C@H](C(=O)N[C@@H](CCCNC(=N)N)C(=O)N[C@@H](CCCNC(=N)N)C(=O)N[C@H](C(=O)N[C@@H](Cc3c[nH]c4ccccc34)C(=O)N[C@@H](CCCNC(=N)N)C(N)=O)C(C)C)C(C)C)(C2)NC(=O)[C@H](CC(=O)O)NC(=O)[C@H](CC(C)C)NC1=O` (single isomer, unassigned) [FP0766c, Ac-P-Q-R5-I-L-D-MC-H-V-R-R-V-W-R-NH2]: in experiment [1] (setting [3]), the concentration for a half-maximal effect (EC50) was below 100 nM. Further, the Kd in experiment [2] (Table 2, read-out: Kd by SPR) is 7 nM.

In the case of `CC[C@H](C)[C@@H]1NC(=O)[C@@](C)(NC(=O)[C@H](CCC(N)=O)NC(=O)[C@@H]2CCCN2C(C)=O)CCCCCC=CCN2CC(C(=O)N[C@@H](Cc3c[nH]cn3)C(=O)N[C@H](C(=O)N[C@@H](CCCNC(=N)N)C(=O)N[C@@H](CCCNC(=N)N)C(=O)N[C@H](C(=O)N[C@@H](Cc3c[nH]c4ccccc34)C(=O)N[C@@H](CCCNC(=N)N)C(N)=O)C(C)C)C(C)C)(C2)NC(=O)[C@H](CC(=O)O)NC(=O)[C@H](CC(C)C)NC1=O` (single isomer, unassigned) [FP-0738a], the half-maximal effective concentration (EC50) in experiment [1] (setting [4]) worked out at 200 nM. Moreover, in experiment [2] (setting [5]), the Kd is around 43 nM.

On to `CC[C@H](C)[C@@H]1NC(=O)[C@](C)(NC(=O)[C@H](C)NC(=O)[C@@H]2CCCN2C(C)=O)CCCCCCC=CCOC(=O)N2CC[C@@](C(=O)N[C@@H](CCCNC(=N)N)C(=O)N[C@H](C(=O)N[C@@H](Cc3c[nH]c4ccccc34)C(N)=O)C(C)C)(C2)NC(=O)[C@H](C(C)C)NC(=O)[C@H](Cc2c[nH]cn2)NC(=O)[C@H](C)NC(=O)[C@H](CC(=O)O)NC(=O)[C@H](CC(C)C)NC1=O` [FP0025c, Ac-P-A-R8-I-L-D-A-H-V-MB-R-V-W-NH2], for which the EC50 in experiment [1] (setting [3]) and in experiment [1] (setting [4]) was below 100 nM each time. The Kd in experiment [2] (setting [5]) turned out to be 15 nM.
